Values of other authors in patent US8871744B2, “Compounds and methods for selectively targeting tumor-associated mucins” (B & G Partyers, LLC, priority 2010, dated 2014).

Key:
NMuMG cells = NMuMG cells stimulated with TGF-β1
[1] = tested on: normal mammary epithelial cells
[2] = tested on: sialomucin complex/rat Muc4; conditions: transfected MEC, activated in fetal calf serum

| SMILES | morphological changes associated with EMT (NMuMG cells) | phosphorylation of Smad2 (NMuMG cells) | epithelial to mesenchymal transition stimulated by TGF-β [1] | Muc4 protein expression [2] |
| --- | --- | --- | --- | --- |
| NC(=O)c1ccc(-c2nc(-c3ccc4c(c3)OCO4)c(-c3ccccn3)[nH]2)cc1 [SB431542, 4-[4-(1,3-benzodioxol-5-yl)-5-(2-pyridinyl)-1H-imidazol-2-yl]benzamide] | inhibited | inhibited |  |  |
| CN[C@@H]1C[C@H]2O[C@@](C)([C@@H]1OC)n1c3ccccc3c3c4c(c5c6ccccc6n2c5c31)C(=O)NC4 [staurosporine] |  |  | abrogated | inhibited |
